Measured values taken from patent US11584714B2 (priority 2018, dated 2023).
Where a name gives a salt, the structure may show the parent alone. Read-outs that look alike come from different tables or passages of the source.

Key:
Assay type in all cases: biochemical
[1] = target: human α-thrombin (Homo sapiens (Human), UniProt P00734); test: Enzymatic assay for thrombin (Boc-VPR-AMC substrate)
[2] = tested on: Lectin Pathway; test: Lectin pathway activation assay in human serum (mannan-coated ELISA, C3c detection); details: 1% human serum
[3] = target: mMASP-2 (Mus musculus (Mouse), UniProt Q91WP0); test: Enzymatic inhibition of mMASP-2; details: read-out: mMASP-2 Ki
[4] = target: MASP-2 (CCP1-CCP2-SP) (Homo sapiens (Human), UniProt O00187); test: biochemical; details: for Ki: read-out: MASP-2 Ki
[5] = selectivity for MASP-2 inhibition versus thrombin

mMASP-2, sequence (Q91WP0 20-685): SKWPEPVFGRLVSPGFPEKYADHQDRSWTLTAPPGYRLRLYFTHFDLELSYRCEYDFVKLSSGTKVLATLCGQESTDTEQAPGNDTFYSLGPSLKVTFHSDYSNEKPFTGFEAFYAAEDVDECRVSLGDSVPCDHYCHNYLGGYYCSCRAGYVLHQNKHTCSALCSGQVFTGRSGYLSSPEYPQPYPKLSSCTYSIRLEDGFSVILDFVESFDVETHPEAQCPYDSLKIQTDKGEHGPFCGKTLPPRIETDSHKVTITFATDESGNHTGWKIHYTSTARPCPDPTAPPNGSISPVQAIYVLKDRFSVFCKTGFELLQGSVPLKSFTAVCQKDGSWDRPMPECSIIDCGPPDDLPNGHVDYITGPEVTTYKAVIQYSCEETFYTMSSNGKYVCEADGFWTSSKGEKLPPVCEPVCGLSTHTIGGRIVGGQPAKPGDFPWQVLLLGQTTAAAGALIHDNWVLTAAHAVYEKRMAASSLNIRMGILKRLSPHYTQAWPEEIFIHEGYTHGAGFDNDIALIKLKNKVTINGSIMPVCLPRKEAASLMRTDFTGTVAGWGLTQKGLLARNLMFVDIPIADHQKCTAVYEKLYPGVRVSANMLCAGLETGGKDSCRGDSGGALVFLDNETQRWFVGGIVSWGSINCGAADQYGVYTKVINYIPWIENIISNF
MASP-2 (CCP1-CCP2-SP), sequence (O00187 445-686): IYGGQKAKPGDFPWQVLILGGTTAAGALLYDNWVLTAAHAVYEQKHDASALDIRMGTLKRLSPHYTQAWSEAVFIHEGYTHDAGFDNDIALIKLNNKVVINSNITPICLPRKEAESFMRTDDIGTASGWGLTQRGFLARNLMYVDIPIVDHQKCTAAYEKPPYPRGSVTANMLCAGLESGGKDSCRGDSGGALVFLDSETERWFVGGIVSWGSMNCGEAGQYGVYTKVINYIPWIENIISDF

Structure (SMILES)	Ki ([1]; Thrombin Ki (μM))	IC50 [2]	Ki [3]	Ki [4]	MASP-2 vs. thrombin selectivity [4, 5]	Ki ([1]; read-out: Thrombin Ki)	MASP-2 vs. thrombin selectivity ([4]; MASP-2 inhibition versus thrombin)
Cc1nc(N)ccc1CNC(=O)[C@H](C)NC(=O)[C@H]1C[C@H](Cc2cccc(C#N)c2)CN1 [compound 1429, (2R,4S)—N—((S)-1-(((6-Amino-2-methylpyridin-3-yl)methyl)amino)-1-oxopropan-2-yl)-4-(3-cyanobenzyl)pyrrolidine-2-carboxamide Di-trifluoroacetate salt]	2.5 to 10 µM	0.5 to 5 µM	< 0.5 µM	< 0.5 µM	**** (≥100-fold)		
Cc1nc(N)ccc1CNC(=O)[C@H](C)NC(=O)[C@H]1C[C@H](Oc2ccccc2)CN1 [compound 1446, (2R,4S)—N—((S)-1-(((6-Amino-2-methylpyridin-3-yl)methyl)amino)-1-oxopropan-2-yl)-4-phenoxypyrrolidine-2-carboxamide]		5 to 50 µM	0.5 to 2.5 µM	< 0.5 µM	**** (≥100-fold)	> 25 µM	
Cc1nc(N)ccc1CNC(=O)[C@H](C)NC(=O)[C@H]1C[C@H](Cc2ccc(F)cc2)CN1 [compound 1447, (2R,4S)—N—((S)-1-(((6-Amino-2-methylpyridin-3-yl)methyl)amino)-1-oxopropan-2-yl)-4-(4-fluorobenzyl)pyrrolidine-2-carboxamide Di-trifluoroacetate salt]	2.5 to 10 µM	0.5 to 5 µM	< 0.5 µM	< 0.5 µM	**** (≥100-fold)		
Cc1ccccc1CN1CCN[C@@H](C(=O)N[C@@H](C)C(=O)NCc2ccc(N)nc2C)C1 [compound 1348, (R)—N—((S)-1-(((6-Amino-2-methylpyridin-3-yl)methyl)amino)-1-oxopropan-2-yl)-4-(2-methylbenzyl)piperazine-2-carboxamide Dihydrochloride]		< 0.05 µM	< 0.5 µM	< 0.5 µM	*** (≥25 to <100-fold)	< 0.5 µM	
C[C@H](NC(=O)[C@H]1C[C@H](Cc2cccc3ccccc23)CN1)C(=O)NCc1cc(Cl)ccc1-n1cnnn1 [compound 1414, (2R,4S)—N—((S)-1-((5-Chloro-2-(1H-tetrazol-1-yl)benzyl)amino)-1-oxopropan-2-yl)-4-(naphthalen-1-ylmethyl)pyrrolidine-2-carboxamide Hydrochloride]		0.05 to 0.5 µM	< 0.5 µM	< 0.5 µM	−− (<1.0-fold)	< 0.5 µM	
C[C@H](NC(=O)[C@H]1C[C@H](Cc2ccc(C3CCC3)cc2)CN1)C(=O)NCc1cnc2[nH]cc(Cl)c2c1 [compound 1378, (2R,4S)—N—((S)-1-(((3-Chloro-1H-pyrrolo[2,3-b]pyridin-5-yl)methyl)amino)-1-oxopropan-2-yl)-4-(4-cyclobutylbenzyl)pyrrolidine-2-carboxamide Di-trifluoroacetate salt]	0.5 to 2.5 µM	0.5 to 5 µM	< 0.5 µM	< 0.5 µM	* (≥1.0 to <5.0-fold)		
C[C@H](NC(=O)[C@H]1C[C@@H](c2ccccc2)CCN1)C(=O)NCc1cnc2[nH]cc(Cl)c2c1 [compound 1433, (2R,4S)—N—((S)-1-(((3-Chloro-1H-pyrrolo[2,3-b]pyridin-5-yl)methyl)amino)-1-oxopropan-2-yl)-4-phenylpiperidine-2-carboxamide]	0.5 to 2.5 µM	0.05 to 0.5 µM	< 0.5 µM	< 0.5 µM	**** (≥100-fold)		
Cc1cc(Cl)cc(CNC(=O)[C@H](C)NC(=O)[C@H]2C[C@H](Cc3ccc(Cl)s3)CN2)c1O [compound 1456, (2R,4R)—N—((S)-1-((5-Chloro-2-hydroxy-3-methylbenzyl)amino)-1-oxopropan-2-yl)-4-((5-chlorothiophen-2-yl)methyl)pyrrolidine-2-carboxamide Dihydrochloride]		5 to 50 µM	0.5 to 2.5 µM	< 0.5 µM		> 25 µM	
Cc1cccc(C[C@@H]2CN[C@@H](C(=O)N[C@@H](C)C(=O)NCc3ccc(N)nc3C)C2)c1 [compound 1337, (2R,4S)—N—((S)-1-(((6-amino-2-methylpyridin-3-yl)methyl)amino)-1-oxopropan-2-yl)-4-(3-methylbenzyl)pyrrolidine-2-carboxamide dihydrochloride]	0.5 to 2.5 µM	0.5 to 5 µM	< 0.5 µM	< 0.5 µM	**** (≥100-fold)		
C[C@H](NC(=O)[C@H]1C[C@H](Cc2cccc3ccccc23)CN1)C(=O)NCc1cnc2[nH]cc(Cl)c2c1 [compound 1415, (2R,4S)—N—((S)-1-(((3-Chloro-1H-pyrrolo[2,3-b]pyridin-5-yl)methyl)amino)-1-oxopropan-2-yl)-4-(naphthalen-1-ylmethyl)pyrrolidine-2-carboxamide Hydrochloride]		0.05 to 0.5 µM	< 0.5 µM	< 0.5 µM	* (≥1.0 to <5.0-fold)	< 0.5 µM	
Cc1cnc(NCCc2ccccc2)c(=O)n1CC(=O)NCc1ccc2nc(N)[nH]c2c1 [compound 1492, N-((2-Amino-1H-benzo[d]imidazol-6-yl)methyl)-2-(6-methyl-2-oxo-3-(phenethylamino)pyrazin-1(2H)-yl)acetamide Trifluoroacetamide salt]		0.05 to 0.5 µM	< 0.5 µM	< 0.5 µM	** (≥5.0 to <25-fold)	< 0.5 µM	
Cc1nc(N)ccc1CNC(=O)[C@H](C)NC(=O)[C@H]1C[C@@H](c2ccccc2)CCN1C [compound 1441, (2R,4S)—N—((S)-1-(((6-Amino-2-methylpyridin-3-yl)methyl)amino)-1-oxopropan-2-yl)-1-methyl-4-phenylpiperidine-2-carboxamide]		0.05 to 0.5 µM	< 0.5 µM	< 0.5 µM		> 25 µM	
Cc1nc(N)ccc1CNC(=O)[C@H](C)NC(=O)[C@H]1C[C@H](Cc2ccc(-c3nccs3)cc2)CN1 [compound 1361, (2R,4S)—N—((S)-1-(((6-Amino-2-methylpyridin-3-yl)methyl)amino)-1-oxopropan-2-yl)-4-(4-(thiazol-2-yl)benzyl)pyrrolidine-2-carboxamide Di-trifluoroacetate salt]		< 0.05 µM	< 0.5 µM	< 0.5 µM	**** (≥100-fold)	> 25 µM	
Cc1nc(N)ccc1CNC(=O)[C@H](C)NC(=O)[C@H]1C[C@H](Cc2cccc3ccccc23)CN1 [compound 1324, (2R,4S)—N—((S)-1-(((6-Amino-2-methylpyridin-3-yl)methyl)amino)-1-oxopropan-2-yl)-4-(naphthalen-1-ylmethyl)pyrrolidine-2-carboxamide Di-trifluoroacetate salt]	0.5 to 2.5 µM	0.05 to 0.5 µM	< 0.5 µM	< 0.5 µM	*** (≥25 to <100-fold)		
C[C@H](NC(=O)[C@H]1C[C@H](Cc2ccc3ccccc3c2)CN1)C(=O)NCc1cnc2[nH]cc(Cl)c2c1 [compound 1392, (2R,4S)—N—((S)-1-(((3-Chloro-1H-pyrrolo[2,3-b]pyridin-5-yl)methyl)amino)-1-oxopropan-2-yl)-4-(naphthalen-2-ylmethyl)pyrrolidine-2-carboxamide Di-Trifluoroacetate salt]	0.5 to 2.5 µM	0.5 to 5 µM	< 0.5 µM	< 0.5 µM	*** (≥25 to <100-fold)		
Cc1nc(N)ccc1CNC(=O)[C@H](C)NC(=O)[C@H]1C[C@H](Cc2ccccc2Br)CN1 [compound 1372, (2R,4S)—N—((S)-1-(((6-Amino-2-methylpyridin-3-yl)methyl)amino)-1-oxopropan-2-yl)-4-(2-bromobenzyl)pyrrolidine-2-carboxamide Di-trifluoroacetate salt]		0.05 to 0.5 µM	< 0.5 µM	< 0.5 µM	** (≥5.0 to <25-fold)	< 0.5 µM	
Cc1cc(C)cc(C[C@@H]2CN[C@@H](C(=O)N[C@@H](C)C(=O)NCc3ccc(N)nc3C)C2)c1 [compound 1331, (2R,4S)—N—((S)-1-(((6-amino-2-methylpyridin-3-yl)methyl)amino)-1-oxopropan-2-yl)-4-(3,5-dimethylbenzyl)pyrrolidine-2-carboxamide Dihydrochloride]		0.05 to 0.5 µM	< 0.5 µM	< 0.5 µM	**** (≥100-fold)	> 25 µM	
Cc1c(Cl)cccc1CC[C@@H](N)C(=O)N[C@@H](C)C(=O)NCc1ccc(C(=N)N)cc1 [compound 1103]		0.05 to 0.5 µM	< 0.5 µM	< 0.5 µM		< 0.5 µM	** (5.0 to 25-fold)
Cc1nc(N)ccc1CNC(=O)[C@H](C)NC(=O)[C@H]1C[C@H](Cc2ccc(Cl)s2)CN1 [compound 1454, (2R,4R)—N—((S)-1-(((6-Amino-2-methylpyridin-3-yl)methyl)amino)-1-oxopropan-2-yl)-4-((5-chlorothiophen-2-yl)methyl)pyrrolidine-2-carboxamide Dihydrochloride]	0.5 to 2.5 µM	0.5 to 5 µM	< 0.5 µM	< 0.5 µM	*** (≥25 to <100-fold)		
Cc1nc(N)ccc1CNC(=O)[C@H](C)NC(=O)C1=CC(c2ccccc2)C2=C(CC(C)(C)CC2=O)N1 (stereo partly drawn) [compound 1388, N-((S)-1-(((6-Amino-2-methylpyridin-3-yl)methyl)amino)-1-oxopropan-2-yl)-7,7-dimethyl-5-oxo-4-phenyl-1,4,5,6,7,8-hexahydroquinoline-2-carboxamide]		< 0.05 µM	< 0.5 µM			> 25 µM	
